From paper PMC12181291, “Production and biochemical characterization of Pleurotus ostreatus NRC 620 laccase and evaluation of its efficacy in apple juice clarification” (Scientific Reports, 2025)

System: T1, Pleurotus ostreatus NRC 620 laccase
T1 construct: gene pox2
Settings: pH 4.5; ABTS 0.025-3 mM; crude culture supernatant

CCn1c(=NN=c2sc3cc(S(=O)(=O)O)ccc3n2CC)sc2cc(S(=O)(=O)O)ccc21 [ABTS, 2, 2´-azino-bis (3-ethylbenzothiazoline-6-sulphonic acid)]
Km: 1990 µM
